{"source": "patent US5157052A", "about": "“Method for inhibiting IgE production” (priority 1990, dated 1992)", "key": {"IL-2 receptor": {"tested_on": "IL-2 receptor", "experiment": "Splenocyte cell surface density/distribution (FACS): IL-2 receptor", "type": "in vivo, mouse (Balb/c female)", "protocol": "Another (Group B) is injected with 20 μg (±) methyl 11α,16-dihydroxy-16-methyl-9-oxoprosta-5Z,13E-dien-1-oate as in Example 13. […] A 3 cm incision is made with a scalpel above the left hip, and the spleen is cut free from adjoining tissue and placed in a 100 mn plastic culture dish containing 10 ml PBS. The splenic cells are then made into a suspension, by rubbing the spleens between the rough, frosted ends of microscope slides repeatedly until the only remaining particulate matter is connective tissue. Cells are transferred to a 15 ml conical polystyrene tube and centrifuged in a centrifuge at 1200 rpm for 5 minutes. The supernatant is discarded by aspiration and the cell pellet is resuspended in 10 ml PBS, then centrifuged at 1200 rpm for 5 minutes. The supernatant is aspirated and the cell pellet is resuspended in 15 mM Tris, 140 mM Ammonium Chloride, to lyse red blood cells. After incubating at room temperature for 10 minutes the cell suspension is centrifuged at 1200 rpm for 10 minutes. The supernatant is discarded and the cell pellet is resuspended in 10 ml FACS Buffer (PBS containing 0.1% BSA and 0.1% Sodium Azide). The cell suspension is filtered through sterile glass wool plugged in the top of a pasteur pipet. Cells in the flow through are counted using a hemacytometer, then the cell suspension is centrifuged at 1200 rpm for 5 minutes. The supernatant is discarded and the cell pellet is resuspended in a volume of FACS Buffer that will yield 4×10^7 cells/ml. 10 μl (4×10^5 cells) is added to each well of a 96-well V-bottom plate. 25 μl of diluted monoclonal antibody directed against splenocyte cell surface proteins is added to each well: Major Histocompatability Complex (MHC) Class II (M5114, ATCC, Rockville Md.), MHC Class I (M1/42, ATCC), Anti-IgD (JA12.5, ATCC, Rockville, Md.), Thymocyte (Thy)-1 (JIJ, ATCC), B220 (14.8, ATCC), Kappa light chain (187, ATCC), IL-2 Receptor (7D4, ATCC), Lyt-1 (7.313, ATCC) and CD23 (biotinylated B3B4) and incubated on ice for 30 minutes. 100 μl 10% BSA 0.1% sodium azide is added to each well, then the plates are centrifuged at 1200 rpm for 10 minutes. The liquid is removed by aspiration and the cell pellets are resuspended in 100 μl FACS Buffer, and centrifuged at 1200 rpm for 5 minutes. […] Samples are transferred to individual tubes and 10,000 cells are analyzed. Using the Lysis software (Becton Dickinson, Mountain View, Calif.) the mean channel log fluorescence and percent positive cells are determined for the entire cell population. […]"}, "[1]": {"tested_on": "leukocyte membrane proteins", "experiment": "Cell surface density or distribution of leukocyte membrane proteins, overall", "type": "in vivo, mouse (Balb/c female)"}}, "data": [{"smiles": "CCCCC(C)(O)C/C=C/[C@H]1[C@H](O)CC(=O)[C@@H]1C/C=C\\CCCC(=O)OC", "note": "(mixture of isomers) [(±) methyl 11α,16-dihydroxy-16-methyl-9-oxoprosta-5Z,13E-dien-1-oate]", "values": [{"measurement": "Percentage Positive Cells", "setting": "IL-2 receptor; anti-IgD stimulated mice, 20 μg days 3 and 4, day 7 (PBS 18.4)", "result": "23 ± 7.7", "unit": "%"}, {"measurement": "Mean Channel Log Fluorescence", "setting": "IL-2 receptor; anti-IgD stimulated mice, 20 μg days 3 and 4, day 7 (PBS 101)", "result": "97 ± 1.5"}, {"measurement": "Percentage Positive Cells", "setting": "IL-2 receptor; unstimulated mice, 20 μg (PBS 2.4)", "result": "2.7 ± 0.3", "unit": "%"}, {"measurement": "Mean Channel Log Fluorescence", "setting": "IL-2 receptor; unstimulated mice, 20 μg (PBS 98)", "result": "96 ± 1"}, {"measurement": "cell surface density and distribution", "setting": "[1]; anti-IgD stimulated mice, 20 μg days 3 and 4, day 7", "result": "identical cell surface density and distribution as the PBS treated group"}, {"measurement": "cell surface density and distribution", "setting": "[1]; unstimulated mice, 20 μg", "result": "does not effect basal cell surface density or distribution of leukocyte membrane proteins"}]}]}
